Measurements taken from patent US20160368879A1, “PHOTOACID GENERATOR, AND RESIN COMPOSITION FOR PHOTOLITHOGRAPHY” (SAN-APRO LTD., priority 2013, published 2016).

Key:
Format in all cases: physicochemical
[1] = Solvent solubility (butyl acetate, toluene or PGMEA); conditions: 25° C.
Description: In a test tube, 0.1 g of the synthesized photoacid generator was placed, and an organic solvent (butyl acetate, toluene or PGMEA) was added thereto in 0.2 g portions under a condition where the temperature was adjusted to 25° C. until the photoacid generator was completely dissolved. In this connection, in the case where the photoacid generator was not completely dissolved even when 20 g of the solvent was added, the photoacid generator was evaluated as one that was not dissolved.

[2] = Thermal decomposition temperature (TG/DTA, 2% weight reduction); conditions: point of 2% weight reduction; 10° C./minute from 30° C. to 500° C.; nitrogen atmosphere
Description: The synthesized photoacid generator was measured for the change in weight under a temperature increasing condition of 10° C./minute from 30° C. to 500° C. under a nitrogen atmosphere using a thermal gravimetric/differential thermal analyzer (TG/DTA 6200, available from Seiko Instruments Inc.), and a point where the weight was reduced by 2% was defined as the thermal decomposition temperature.

[3] = Molar extinction coefficient of i-line (365 nm), UV-visible absorbance in acetonitrile; conditions: 0.25 mmol/L in acetonitrile, cell length 1 cm
Description: The synthesized photoacid generator was diluted to 0.25 mmol/L with acetonitrile, and using an ultraviolet-visible spectrophotometer (UV-2550 available from SHIMADZU CORPORATION), the absorbance in a range of 200 nm to 500 nm was measured with a cell having an optical path length (a cell length) of 1 cm. The molar extinction coefficient of i-line (365 nm) (ε365) was calculated from the following equation.
[In the equation, […] represents the absorbance at 365 nm.]

Compound | Solvent solubility PGMEA [1] | Solvent solubility Butyl acetate [1] | Solvent solubility Toluene [1] | Thermal decomposition temperature [2] | Molar extinction coefficient [3]
O=C1c2cccc3c(C(F)(F)C(F)(F)C(F)(F)C(F)(F)F)ccc(c23)C(=O)N1OS(=O)(=O)C(F)(F)F [Example A-16, 4-(nonafluorobutyl)-1,8-naphthalimide trifluoromethanesulfonate] | 22 wt % | 25 wt % | 28 wt % | 239 °C | 40 L/mol/cm
CC(C)(C)c1cc2c3c(cc(C(C)(C)C)cc3c1)C(=O)N(OS(=O)(=O)CC13CCC(CC1=O)C3(C)C)C2=O (stereo not drawn) [Example A-53, 3,6-di-tert-butyl-1,8-naphthalimide-(+)-10-camphorsulfonate] | 1.7 wt % | 2 wt % | 1.9 wt % | 247 °C | 6500 L/mol/cm
C[Si](C)(C)c1ccc2c3c(cccc13)C(=O)N(OS(=O)(=O)C(F)(F)F)C2=O [Example A-18, 4-trimethylsilyl-1,8-naphthalimide trifluoromethanesulfonate] | 8 wt % | 7.5 wt % | 9 wt % | 240 °C | 5500 L/mol/cm
CC(C)Oc1ccc2c3c(cccc13)C(=O)N(OS(=O)(=O)C(F)(F)F)C2=O [Example A-1, 4-isopropoxy-1,8-naphthalimide trifluoromethanesulfonate] | 6.5 wt % | 8.5 wt % | 9 wt % | 234 °C | 16300 L/mol/cm
CCCCC(CC)C(=O)Oc1cc2c3c(cccc3c1)C(=O)N(OS(=O)(=O)CC13CCC(CC1=O)C3(C)C)C2=O (stereo not drawn) [Example A-49, 3-(2-ethylhexanoyloxy)-1,8-naphthalimide-(+)-10-camphorsulfonate] | 8 wt % | 11 wt % | 9 wt % | 232 °C | 1500 L/mol/cm
O=C1c2cccc3c(Br)ccc(c23)C(=O)N1OS(=O)(=O)c1c(F)c(F)c(F)c(F)c1F [Example A-40, 4-bromo-1,8-naphthalimide pentafluorobenzenesulfonate] | 3.2 wt % | 3 wt % | 4.5 wt % | 243 °C | 8500 L/mol/cm
CC1(C)C2CCC1(CS(=O)(=O)ON1C(=O)c3cccc4c(Oc5cccc(C(F)(F)F)c5)ccc(c34)C1=O)C(=O)C2 (stereo not drawn) [Example A-46, 4-(3-trifluoromethylphenoxy)-1,8-naphthalimide-(+)-10-camphorsulfonate] | 2.8 wt % | 3.5 wt % | 3.3 wt % | 243 °C | 16000 L/mol/cm
O=C1c2cc(C34CC5CC(CC(C5)C3)C4)cc3cc(C45CC6CC(CC(C6)C4)C5)cc(c23)C(=O)N1OS(=O)(=O)c1c(F)c(F)c(F)c(F)c1F [Example A-35, 3,6-diadamantyl-1,8-naphthalimide pentafluorobenzenesulfonate] | 5.5 wt % | 6 wt % | 9 wt % | 251 °C | 6000 L/mol/cm
O=C1c2cccc3c(OCC(F)(F)C(F)F)ccc(c23)C(=O)N1OS(=O)(=O)C(F)(F)F [Example A-3, 4-(2,2,3,3-tetrafluoro-1-propoxy)-1,8-naphthalimide trifluoromethanesulfonate] | 7.5 wt % | 6 wt % | 12 wt % | 230 °C | 12000 L/mol/cm
O=C1c2cccc3c(Cl)ccc(c23)C(=O)N1OS(=O)(=O)C(F)(F)F [Example A-19, 4-chloro-1,8-naphthalimide trifluoromethanesulfonate] | 6 wt % | 5 wt % | 10 wt % | 220 °C | 6000 L/mol/cm
O=C1c2cccc3c(Cl)ccc(c23)C(=O)N1OS(=O)(=O)c1c(F)c(F)c(F)c(F)c1F [Example A-39, 4-chloro-1,8-naphthalimide pentafluorobenzenesulfonate] | 3.5 wt % | 3 wt % | 5 wt % | 225 °C | 6000 L/mol/cm
CC(C)(C)c1cc2c3c(cc(C(C)(C)C)cc3c1)C(=O)N(OS(=O)(=O)C(F)(F)F)C2=O [Example A-13, 3,6-di-tert-butyl-1,8-naphthalimide trifluoromethanesulfonate] | 8 wt % | 8 wt % | 7.5 wt % | 245 °C | 6500 L/mol/cm
O=C(Oc1cc2c3c(cccc3c1)C(=O)N(OS(=O)(=O)c1c(F)c(F)c(F)c(F)c1F)C2=O)c1ccccc1 [Example A-31, 3-benzoyloxy-1,8-naphthalimide pentafluorobenzenesulfonate] | 16 wt % | 20 wt % | 18 wt % | 243 °C | 1400 L/mol/cm
O=C1c2cccc3c(Oc4c(F)c(F)c(F)c(F)c4F)ccc(c23)C(=O)N1OS(=O)(=O)c1c(F)c(F)c(F)c(F)c1F [Example A-25, 4-pentafluorophenoxy-1,8-naphthalimide pentafluorobenzenesulfonate] | 11 wt % | 14 wt % | 13 wt % | 247 °C | 12000 L/mol/cm
